Each compound was assayed on MCH receptors (assay: MCH receptor activity class (method not given)). Conditions: not given.

class	Structure (SMILES)
1	Cc1cc(N(C)C)nc(N[C@H]2CC[C@@H](C(=O)NCc3ccc(F)cc3F)CC2)n1 [Example 2582, cis-N-(2,4-difluorobenzyl)-4-{[4-(dimethylamino)-6-methylpyrimidin-2-yl]amino}cyclohexanecarboxamide]
1	Cc1cc(N(C)C)nc(N[C@H]2CC[C@@H](C(=O)NCc3cc(F)ccc3F)CC2)n1 [Example 2583, cis-N-(2,5-difluorobenzyl)-4-{[4-(dimethylamino)-6-methylpyrimidin-2-yl]amino}cyclohexanecarboxamide]
1	Cc1cc(N(C)C)nc(N[C@H]2CC[C@@H](C(=O)NCc3cccc(F)c3F)CC2)n1 [Example 2584, cis-N-(2,3-difluorobenzyl)-4-{[4-(dimethylamino)-6-methylpyrimidin-2-yl]amino}cyclohexanecarboxamide]
1	Cc1cc(N(C)C)nc(N[C@H]2CC[C@@H](C(=O)NCc3ccc(Br)cc3F)CC2)n1 [Example 2585, cis-N-(4-bromo-2-fluorobenzyl)-4-{[4-(dimethylamino)-6-methylpyrimidin-2-yl]amino}cyclohexanecarboxamide]
1	Cc1cccc(CNC(=O)[C@H]2CC[C@@H](Nc3nc(C)cc(N(C)C)n3)CC2)c1 [Example 2586, cis-4-{[4-(dimethylamino)-6-methylpyrimidin-2-yl]amino}-N-(3-methylbenzyl)cyclohexanecarboxamide]
1	Cc1cc(N(C)C)nc(N[C@H]2CC[C@@H](C(=O)NCc3ccccc3OC(F)(F)F)CC2)n1 [Example 2587, cis-4-{[4-(dimethylamino)-6-methylpyrimidin-2-yl]amino}-N-[2-(trifluoromethoxy)benzyl]cyclohexanecarboxamide]

Same assay, conditions: MCH receptor; class by percent of control at 10^-7 M or IC50

Structure (SMILES)	class
COc1cccc(C(=O)N[C@H]2CC[C@@H](Nc3cc(N(C)C)c4ccccc4n3)CC2)c1 [compound 20, N-(cis-4-{[4-(dimethylamino)quinolin-2-yl]amino}cyclohexyl)-3-methoxybenzamide]	2 (Class 2: The value of percent of control at 10^−7 M was from 40% to 60% or the value of IC′50 was from 50 nM to 200 nM.)
CN(C)c1cc(N[C@H]2CC[C@@H](NC(=O)c3cccc(Br)c3)CC2)nc2ccccc12 [compound 21]	1 (Class 1: The value of percent of control at 10^−7 M was less than 40% or the value of IC50 was less than 50 nM.)
CN(C)c1cc(N[C@H]2CC[C@@H](NC(=O)c3ccc(Br)cc3)CC2)nc2ccccc12 [compound 22]	2 (Class 2: The value of percent of control at 10^−7 M was from 40% to 60% or the value of IC′50 was from 50 nM to 200 nM.)
CN(C)c1cc(N[C@H]2CC[C@@H](NC(=O)c3ccc4nonc4c3)CC2)nc2ccccc12 [compound 23, N-(cis-4-{[4-(dimethylamino)quinolin-2-yl]amino}cyclohexyl)-2,1,3-benzoxadiazole-5-carboxamide]	1 (Class 1: The value of percent of control at 10^−7 M was less than 40% or the value of IC50 was less than 50 nM.)
CN(C)c1cc(N[C@H]2CC[C@@H](NC(=O)c3cccc(Cl)c3)CC2)nc2ccccc12 [compound 24]	1 (Class 1: The value of percent of control at 10^−7 M was less than 40% or the value of IC50 was less than 50 nM.)
CN(C)c1cc(N[C@H]2CC[C@@H](NC(=O)c3ccc(Cl)cc3)CC2)nc2ccccc12 [compound 25]	1 (Class 1: The value of percent of control at 10^−7 M was less than 40% or the value of IC50 was less than 50 nM.)
CN(C)c1cc(N[C@H]2CC[C@@H](NC(=O)/C=C/c3ccccc3)CC2)nc2ccccc12 [compound 26]	3 (Class 3 The value of percent of control at 10^−7 M was more than 60% or the value of IC50 was more than 200 nM.)
CN(C)c1cc(N[C@H]2CC[C@@H](NC(=O)c3ccc(Cl)c([N+](=O)[O-])c3)CC2)nc2ccccc12 [compound 27, 4-chloro-N-(cis-4-{[4-(dimethylamino)quinolin-2-yl]amino}cyclohexyl)-3-nitrobenzamide]	1 (Class 1: The value of percent of control at 10^−7 M was less than 40% or the value of IC50 was less than 50 nM.)
CN(C)c1cc(N[C@H]2CC[C@@H](NC(=O)Cc3ccc(Cl)cc3)CC2)nc2ccccc12 [compound 28]	3 (Class 3 The value of percent of control at 10^−7 M was more than 60% or the value of IC50 was more than 200 nM.)
CN(C)c1cc(N[C@H]2CC[C@@H](NC(=O)c3cccc(C#N)c3)CC2)nc2ccccc12 [compound 29]	2 (Class 2: The value of percent of control at 10^−7 M was from 40% to 60% or the value of IC′50 was from 50 nM to 200 nM.)
CN(C)c1cc(N[C@H]2CC[C@@H](NC(=O)c3cc(Cl)cc(Cl)c3)CC2)nc2ccccc12 [compound 30]	2 (Class 2: The value of percent of control at 10^−7 M was from 40% to 60% or the value of IC′50 was from 50 nM to 200 nM.)
CN(C)c1cc(N[C@H]2CC[C@@H](NC(=O)c3ccc(Cl)c(Cl)c3)CC2)nc2ccccc12 [compound 31]	1 (Class 1: The value of percent of control at 10^−7 M was less than 40% or the value of IC50 was less than 50 nM.)
CN(C)c1cc(N[C@H]2CC[C@@H](NC(=O)C(c3ccccc3)c3ccccc3)CC2)nc2ccccc12 [compound 32, N-(cis-4-{[4-(dimethylamino)quinolin-2-yl]amino}cyclohexyl)-2,2-diphenylacetamide]	2 (Class 2: The value of percent of control at 10^−7 M was from 40% to 60% or the value of IC′50 was from 50 nM to 200 nM.)
CN(C)c1cc(N[C@H]2CC[C@@H](NC(=O)c3ccc(F)c(F)c3)CC2)nc2ccccc12 [compound 33, N-(cis-4-{[4-(dimethylamino)quinolin-2-yl]amino}cyclohexyl)-3,4-difluorobenzamide]	1 (Class 1: The value of percent of control at 10^−7 M was less than 40% or the value of IC50 was less than 50 nM.)
CN(C)c1cc(N[C@H]2CC[C@@H](NC(=O)c3cc(F)cc(F)c3)CC2)nc2ccccc12 [compound 34, N-(cis-4-{[4-(dimethylamino)quinolin-2-yl]amino}cyclohexyl)-3,5-difluorobenzamide]	2 (Class 2: The value of percent of control at 10^−7 M was from 40% to 60% or the value of IC′50 was from 50 nM to 200 nM.)
COc1ccc(OC)c(CC(=O)N[C@H]2CC[C@@H](Nc3cc(N(C)C)c4ccccc4n3)CC2)c1 [compound 35]	3 (Class 3 The value of percent of control at 10^−7 M was more than 60% or the value of IC50 was more than 200 nM.)
CCSc1ncccc1C(=O)N[C@H]1CC[C@@H](Nc2cc(N(C)C)c3ccccc3n2)CC1 [compound 36]	3 (Class 3 The value of percent of control at 10^−7 M was more than 60% or the value of IC50 was more than 200 nM.)
CN(C)c1cc(N[C@H]2CC[C@@H](NC(=O)c3ccc(F)cc3)CC2)nc2ccccc12 [compound 37, N-(cis-4-{[4-(dimethylamino)quinolin-2-yl]amino}cyclohexyl)-4-fluorobenzamide]	1 (Class 1: The value of percent of control at 10^−7 M was less than 40% or the value of IC50 was less than 50 nM.)
CN(C)c1cc(N[C@H]2CC[C@@H](NC(=O)c3cc(F)cc(C(F)(F)F)c3)CC2)nc2ccccc12 [compound 38, N-(cis-4-{[4-(dimethylamino)quinolin-2-yl]amino}cyclohexyl)-3-fluoro-5-(trifluoromethyl)benzamide]	2 (Class 2: The value of percent of control at 10^−7 M was from 40% to 60% or the value of IC′50 was from 50 nM to 200 nM.)
CN(C)c1cc(N[C@H]2CC[C@@H](NC(=O)c3cc(F)c(Cl)cc3Cl)CC2)nc2ccccc12 [compound 39]	3 (Class 3 The value of percent of control at 10^−7 M was more than 60% or the value of IC50 was more than 200 nM.)
CCCCCC(=O)N[C@H]1CC[C@@H](Nc2cc(N(C)C)c3ccccc3n2)CC1 [compound 40]	3 (Class 3 The value of percent of control at 10^−7 M was more than 60% or the value of IC50 was more than 200 nM.)
CN(C)c1cc(N[C@H]2CC[C@@H](NC(=O)c3ccc(I)cc3)CC2)nc2ccccc12 [compound 41]	3 (Class 3 The value of percent of control at 10^−7 M was more than 60% or the value of IC50 was more than 200 nM.)
CSc1ncccc1C(=O)N[C@H]1CC[C@@H](Nc2cc(N(C)C)c3ccccc3n2)CC1 [compound 42]	3 (Class 3 The value of percent of control at 10^−7 M was more than 60% or the value of IC50 was more than 200 nM.)
Cc1ccc(C(=O)N[C@H]2CC[C@@H](Nc3cc(N(C)C)c4ccccc4n3)CC2)cc1[N+](=O)[O-] [compound 43, N-(cis-4-{[4-(dimethylamino)quinolin-2-yl]amino}cyclohexyl)-4-methyl-3-nitrobenzamide]	2 (Class 2: The value of percent of control at 10^−7 M was from 40% to 60% or the value of IC′50 was from 50 nM to 200 nM.)
CN(C)c1cc(N[C@H]2CC[C@@H](NC(=O)c3cccc([N+](=O)[O-])c3)CC2)nc2ccccc12 [compound 44, N-(cis-4-{[4-(dimethylamino)quinolin-2-yl]amino}cyclohexyl)-3-nitrobenzamide]	1 (Class 1: The value of percent of control at 10^−7 M was less than 40% or the value of IC50 was less than 50 nM.)
CN(C)c1cc(N[C@H]2CC[C@@H](NC(=O)Cc3ccccc3)CC2)nc2ccccc12 [compound 45, N-(cis-4-{[4-(dimethylamino)quinolin-2-yl]amino}cyclohexyl)-2-phenlacetamide]	3 (Class 3 The value of percent of control at 10^−7 M was more than 60% or the value of IC50 was more than 200 nM.)
CN(C)c1cc(N[C@H]2CC[C@@H](NC(=O)C3C[C@H]3c3ccccc3)CC2)nc2ccccc12 (some centres unmarked) [compound 46]	3 (Class 3 The value of percent of control at 10^−7 M was more than 60% or the value of IC50 was more than 200 nM.)
CN(C)c1cc(N[C@H]2CC[C@@H](NC(=O)c3ccc4c(c3)OCO4)CC2)nc2ccccc12 [compound 47]	3 (Class 3 The value of percent of control at 10^−7 M was more than 60% or the value of IC50 was more than 200 nM.)
Cc1cccc(C(=O)N[C@H]2CC[C@@H](Nc3cc(N(C)C)c4ccccc4n3)CC2)c1 [compound 50, N-(cis-4-{[4-(dimethylamino)quinolin-2-yl]amino}cyclohexyl)-3-methylbenzamide]	1 (Class 1: The value of percent of control at 10^−7 M was less than 40% or the value of IC50 was less than 50 nM.)

From patent publication US20050197350A1, “Novel quinoline, tetrahydroquinazoline, and pyrimidine derivatives and methods of treatment related to the use thereof” (TAISHO PHARMACEUTICAL CO., LTD., priority 2003, published 2005)
